Patent publication US5082980A (Case Western Reserve University, priority 1990, dated 1992)

Columns and labels:
[1] = Sterility and pyrogen status of the injectable product; settings: patient-ready product
cerebral blood flow = settings: areas of high flow rate; limitation of water extraction in the brain tissue; cited from earlier work
[2] = Toxic doses / physiological effects of the non-radioactive impurities; settings: quantity present in product, Table I

CCCC[15OH] [^15 O labeled butanol]
sterility and pyrogen status [1]: sterile and pyrogen-free

[15OH2] [^15 O labeled water]
cerebral blood flow measurement, deviation (cerebral blood flow): underestimation of cerebral blood flow in areas of high flow rate

OB(O)O [boric acid]
quantity in the product relative to quantities with observed physiological effects [2]: well below any quantity which has been observed to have any physiological effects
